In patent US7645781B2, “N-aryl-2-oxazolidinone-5-carboxamides and their derivatives” (Pfizer Inc, priority 2002, dated 2010):
Values after ≈ are worked out from the molar mass of the structure shown.

system: Staphylococcus aureus (SAUR 9213); test: MIC by standard agar dilution method; assay type: cell-based; conditions: Mueller Hinton agar, incubated overnight at 35° C.
From the text: The antibacterial agents of this invention have useful activity against a variety of organisms. The in vitro activity of compounds of this invention can be assessed by standard testing procedures such as the determination of minimum inhibitory concentration (MIC) by agar dilution as described in “Approved Standard. Methods for Dilution Antimicrobial Susceptibility Tests for Bacteria That Grow Aerobically”, 3rd. ed., published 1993 by the National Committee for Clinical Laboratory Standards, Villanova, Pa., USA. The in vitro MICs of test compounds are determined by a standard agar dilution method. A stock drug solution of each analog is prepared in the preferred solvent, usually DMSO:H2O (1:3). Serial 2-fold dilutions of each sample are made using 1.0 ml aliquots of sterile distilled water. To each 1.0 ml aliquot of drug is added 9 ml of molten Mueller Hinton agar medium. The drug-supplemented agar is mixed, poured into 15×100 mm petri dishes, and allowed to solidify and dry prior to inoculation. Vials of each of the test organisms are maintained frozen in the vapor phase of a liquid nitrogen freezer. Test cultures are grown overnight at 35° C. on the medium appropriate for the organism. Colonies are harvested with a sterile swab, and cell suspensions are prepared in Trypticase Soy broth (TSB) to equal the turbidity of a 0.5 McFarland standard. A 1:20 dilution of each suspension is made in TSB. The plates containing the drug supplemented agar are inoculated with a 0.001 ml drop of the cell suspension using a Steers replicator, yielding approximately 10^4 to 10^5 cells per spot. The plates are incubated overnight at 35° C. Following incubation the Minimum Inhibitory Concentration (MIC μg/ml), the lowest concentration of drug that inhibits visible growth of the organism, is read and recorded.

`N=S1(=O)CCC(c2ccc(N3C[C@H](C(N)=O)OC3=O)cc2F)CC1` (stereo in doubt) [Example 56, (5R)-3-[4-(cis-1-Imino-1-oxido-1,1,3,4,5,6-hexahydro-2H-thiopyran-4-yl)-3-fluorophenyl]-2-oxo-5-oxazolidinecarboxamide] gave an MIC of 4 µg/mL (≈ 11.3 µM).

same assay, conditions: Mueller Hinton agar, incubated overnight at 35° C., read-out: MIC

Point of comparison: `CN1C(=O)CCc2cc(N3C[C@H](C(N)=O)OC3=O)ccc21` [Example 67, (5R)-3-(1-Methyl-2-oxo-1,2,3,4-tetrahydroquinolin-6-yl)-2-oxo-5-oxazolidinecarboxamide], MIC 2 µg/mL (≈ 6.91 µM). Against it:
- CC(C)n1c(=O)oc2cc(N3C[C@H](C(N)=O)OC3=O)ccc21 [Example 40, (5R)-(−)-3-(2,3-Dihydro-3-isopropyl-2-oxo-6-benzoxazolyl)-2-oxo-5-oxazolidinecarboxamide] — 2-fold higher, 4 µg/mL (≈ 13.1 µM)
- NC(=O)[C@H]1CN(c2ccc(-c3cccnc3)c(F)c2)C(=O)O1 [Example 7, (5R)-(−)-3-[4-(3-Pyridyl)-3-fluorophenyl]-2-oxo-5-oxazolidinecarboxamide] — the same, 2 µg/mL (≈ 6.64 µM)
- CNC(=O)[C@H]1CN(c2ccc3c(c2)sc(=O)n3C(C)C)C(=O)O1 [Example 37, (5R)-(−)-N-Methyl-3-(2,3-dihydro-3-isopropyl-2-oxo-6-benzothiazolyl)-2-oxo-5-oxazolidinecarboxamide] — the same, 2 µg/mL (≈ 5.96 µM)
- NC(=O)[C@H]1CN(c2cc(F)c(N3CC[S+]([O-])CC3)c(F)c2)C(=O)O1 [Example 22, (5R)-(−)-3-[3,5-Difluoro-4-(thiomorpholin-4-yl)phenyl]-2-oxo-5-oxazolidinecarboxamide S-oxide] — 2-fold higher, 4 µg/mL (≈ 11.1 µM)
- CNC(=O)[C@H]1CN(c2ccc3c(c2)oc(=O)n3C)C(=O)O1 [Example 51, (5R)-(−)-N-Methyl-3-(2,3-dihydro-3-methyl-2-oxo-6-benzoxazolyl)-2-oxo-5-oxazolidinecarboxamide] — the same, 2 µg/mL (≈ 6.87 µM)
- CN1C(=O)COc2cc(N3C[C@H](C(N)=O)OC3=O)ccc21 [Example 59, (5R)-3-(3,4-Dihydro-4-methyl-3-oxo-2H-1,4-benzoxazin-7-yl) -2-oxo-5-oxazolidinecarboxamide] — the same, 2 µg/mL (≈ 6.87 µM)
- CNC(=O)[C@H]1CN(c2ccc([C@H]3CC[S@+]([O-])CC3)c(F)c2)C(=O)O1 [Example 85, (5R)-N-Methyl-3-[3-fluoro-4-(trans-tetrahydro-1-oxido-2H-thiopyran-4-yl)phenyl]-2-oxo-5-oxazolidinecarboxamide] — the same, 2 µg/mL (≈ 5.64 µM)
- NC(=O)[C@H]1CN(c2ccc(N3C=CC(=O)CC3)c(F)c2)C(=O)O1 [Example 69, (5R)-3-[4-(4-Oxo-3,4-dihydro-1(2H)-pyridinyl)-3-fluorophenyl]-2-oxo-5-oxazolidinecarboxamide] — the same, 2 µg/mL (≈ 6.26 µM)
- NC(=O)[C@H]1CN(c2ccc(N3C=CC(=NO)CC3)c(F)c2)C(=O)O1 (racemic) [Example 79, (5R)-3-[4-[3,4-Dihydro-4-(hydroxyimino)-1(2H)-pyridinyl]-3-fluorophenyl]-2-oxo-5-oxazolidinecarboxamide] — 2-fold lower, 1 µg/mL (≈ 2.99 µM)
- NC(=O)[C@H]1CN(c2cc(F)c(N3C=CC(=O)CC3)c(F)c2)C(=O)O1 [Example 76, (5R)-3-[4-(4-Oxo-3,4-dihydro-1(2H)-pyridinyl)-3,5-difluorophenyl]-2-oxo-5-oxazolidinecarboxamide] — 2-fold higher, 4 µg/mL (≈ 11.9 µM)
- NC(=O)[C@H]1CN(c2cc(F)c(N3C=CS(=O)(=O)CC3)c(F)c2)C(=O)O1 [Example 65, (5R)-3-[4-(1,1-dioxido-2,3-dihydro-4H-1,4-thiazin-4-yl)-3,5-difluorophenyl]-2-oxo-5-oxazolidinecarboxamide] — not separable, 2 to 4 µg/mL (≈ 5.36 to 10.7 µM)
- CCn1c(=O)oc2cc(N3C[C@H](C(=O)NC)OC3=O)cc(F)c21 [Example 90, (5R)-3-(3-Ethyl-4-fluoro-2-oxo-2,3-dihydro-6-benzoxazolyl)-N-methyl-2-oxo-5-oxazolidinecarboxamide] — 2-fold higher, 4 µg/mL (≈ 12.4 µM)
- CNC(=O)[C@H]1CN(c2ccc3c(c2)CCC(=O)N3C)C(=O)O1 [Example 68, (5R)-N-Methyl-3-(1-methyl-2-oxo-1,2,3,4-tetrahydroquinolin-6-yl)-2-oxo-5-oxazolidinecarboxamide] — 2-fold higher, 4 µg/mL (≈ 13.2 µM)
- CN1C(=S)CSc2cc(N3C[C@H](C(N)=O)OC3=O)ccc21 [Example 84, 3-(4-Methyl-3-thioxo-3,4-dihydro-2H-1,4-benzothiazin-7-yl)-2-oxo-5-oxazolidinecarboxamide] — the same, 2 µg/mL (≈ 6.18 µM)
- CNC(=O)[C@H]1CN(c2cc(F)c3c(c2)oc(=O)n3C(C)C)C(=O)O1 [Example 91, (5R)-3-(4-Fluoro-3-isopropyl-2-oxo-2,3-dihydro-6-benzoxazolyl)-N-methyl-2-oxo-5-oxazolidinecarboxamide] — 2-fold higher, 4 µg/mL (≈ 11.9 µM)
- NC(=O)[C@H]1CN(c2cc(F)c([C@H]3CC[S@+]([O-])CC3)c(F)c2)C(=O)O1 [Example 47, (5R)-(−)-3-[3,5-Difluoro-4-(trans-tetrahydro-1-oxido-2H-thiopyran-4-yl)phenyl]-2-oxo-5-oxazolidinecarboxamide] — 2-fold higher, 4 µg/mL (≈ 11.2 µM)
- COC(=O)N1CC(C)(c2c(F)cc(N3C[C@H](C(N)=O)OC3=O)cc2F)C1 [Example 57, (5R)-(−)-3-[3,5-Difluoro-4-(1-methoxycarbonyl-3-methylazetidin-3-yl)phenyl]-2-oxo-5-oxazolidinecarboxamide] — 4-fold higher, 8 µg/mL (≈ 21.7 µM)
- CN1C(=O)COc2cc(N3C[C@H](C(=O)NCCF)OC3=O)ccc21 [Example 61, (5R)-N-(2-Fluoroethyl)-3-(3,4-dihydro-4-methyl-3-oxo-2H -1,4-benzoxazin-7-yl)-2-oxo-5-oxazolidinecarboxamide] — 4-fold higher, 8 µg/mL (≈ 23.7 µM)
- CNC(=O)[C@H]1CN(c2ccc3c(c2)OCC(=O)N3C)C(=O)O1 [Example 60, (5R)-N-Methyl-3-(3,4-dihydro-4-methyl-3-oxo-2H-1,4-benzoxazin-7-yl)-2-oxo-5-oxazolidinecarboxamide] — the same, 2 µg/mL (≈ 6.55 µM)
- NC(=O)[C@H]1CN(c2cc(F)c(N3CC=CC3)c(F)c2)C(=O)O1 [Example 66, (5R)-3-[4-(2,5-Dihydro-1H-pyrrol-1-yl)-3,5-difluorophenyl]-2-oxo-5-oxazolidinecarboxamide] — 2-fold higher, 4 µg/mL (≈ 12.9 µM)
- NC(=O)[C@H]1CN(c2ccc(N3C=CC(=O)CC3)cc2)C(=O)O1 [Example 72, (5R)-3-[4-(4-Oxo-3,4-dihydro-1(2H)-pyridinyl)phenyl]-2-oxo-5-oxazolidinecarboxamide] — the same, 2 µg/mL (≈ 6.64 µM)
- CNC(=O)[C@H]1CN(c2cc(F)c([C@H]3CC[S@+]([O-])CC3)c(F)c2)C(=O)O1 [Example 48, (5R)-N-Methyl-3-[3,5-difluoro-4-(trans-tetrahydro-1-oxido-2H-thiopyran-4-yl)phenyl]-2-oxo-5-oxazolidinecarboxamide] — the same, 2 µg/mL (≈ 5.37 µM)
- CCNC(=O)[C@H]1CN(c2cc(F)c(N3C=CC(=O)CC3)c(F)c2)C(=O)O1 [Example 78, (5R)-N-Ethyl-3-[4-(4-oxo-3,4-dihydro-1(2H)-pyridinyl)-3,5-difluorophenyl]-2-oxo-5-oxazolidinecarboxamide] — 4-fold higher, 8 µg/mL (≈ 21.9 µM)

system: not given; test: not given; conditions: not given

Compared with `CC(C)n1c(=O)oc2cc(N3C[C@H](C(N)=O)OC3=O)ccc21` [Example 40, (5R)-(−)-3-(2,3-Dihydro-3-isopropyl-2-oxo-6-benzoxazolyl)-2-oxo-5-oxazolidinecarboxamide], `CNC(=O)[C@H]1CN(c2ccc3c(c2)oc(=O)n3C)C(=O)O1` [Example 51, (5R)-(−)-N-Methyl-3-(2,3-dihydro-3-methyl-2-oxo-6-benzoxazolyl)-2-oxo-5-oxazolidinecarboxamide] is higher in melting point: 182.5 to 184 °C for the first, 304 to 306 °C for the second.

In the case of `CNC(=O)[C@H]1CN(c2ccc3c(c2)sc(=O)n3C(C)C)C(=O)O1` [Example 37, (5R)-(−)-N-Methyl-3-(2,3-dihydro-3-isopropyl-2-oxo-6-benzothiazolyl)-2-oxo-5-oxazolidinecarboxamide], the melting point is reported as 172 to 173.5 °C.

For `NC(=O)[C@H]1CN(c2ccc(-c3cccnc3)c(F)c2)C(=O)O1` [Example 7, (5R)-(−)-3-[4-(3-Pyridyl)-3-fluorophenyl]-2-oxo-5-oxazolidinecarboxamide], the melting point was 240 to 242 °C (dec.).
For `NC(=O)[C@H]1CN(c2cc(F)c(N3CC[S+]([O-])CC3)c(F)c2)C(=O)O1` [Example 22, (5R)-(−)-3-[3,5-Difluoro-4-(thiomorpholin-4-yl)phenyl]-2-oxo-5-oxazolidinecarboxamide S-oxide], the melting point was 273 to 276 °C (dec.).
For `NC(=O)[C@H]1CN(c2ccc(C3CCS(=O)(=O)CC3)c(F)c2)C(=O)O1` [Example 28, (5R)-3-[4-(Tetrahydro-2H-thiopyran-4-yl)-3-fluorophenyl]-2-oxo-5-oxazolidinecarboxamide S,S-dioxide], the melting point was 231 to 234 °C (dec.).
